Source: publication PMC12516379, “Rotamer-Controlled Self-Immolative Linkers Enable Tunable Release of Neurosteroid Oxime Prodrugs” (ACS Medicinal Chemistry Letters, 2025)
Read-outs that look alike come from different tables or passages of the source.

Experiment: Stability in PBS at room temperature via HPLC (UV)
Format: physicochemical
Settings: phosphate-buffered saline (DPBS)
Procedure, shortened: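 Progesterone prodrugs dissolved at 1 mg/mL in PBS (pH 7.03) or 10 mM acetate buffer (pH 5.0), kept at RT and reinjected over time, HPLC-UV AUC at 254 nm. Percent parent remaining; k from ln(%remaining) vs time, pseudo-first-order t1/2 = 0.693/k; duplicates averaged.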

What does the source list for `CNCCN(C)C(=O)O/N=C(\C)[C@H]1CC[C@H]2[C@@H]3CCC4=CC(=O)CC[C@]4(C)[C@H]3CC[C@]12C` [20a]?
half-life at 1 mg/mL (pH 7.03, DPBS pH 7.03, RT, 1 mg/mL, HPLC 254 nm, read-out: t1/2 in PBS buffer at RT (Tables S1-S4) (converted)): 46.9 ± 0.77 h; half-life at 1 mg/mL (pH 7.03, PBS, rt, HPLC (UV), read-out: Half-life (t½) PBS rt (converted)): 46.9 h; half-life at 1 mg/mL (pH 7.03, PBS, rt, read-out: t½: PBS, rt (Table S23) (converted)): 46.9 h
